Active and inactive are the calls of the source.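 Rule for the calls: active = compounds with a fitted EC50 of 33 micromolar or lower for the MEP2 GFP signal; inactive = the rest.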
Test system: not listed separately
Test: MEP2-GFP expression modulation in yeast, dose response, flow cytometry, kMESF, KU SAR set 2 (AID 504468)
Settings: S. cerevisiae MEP2-GFP strain, flow cytometry fluorescence, 3 h; at 100 µM (top of the series)

Compound | GFP fluorescence (kMESF)
CNc1nc(NC)c([N+](=O)[O-])c(Nc2cccc(Cl)c2)n1 | 4.45 kMESF (inactive)
CNc1nc(N)c([N+](=O)[O-])c(Nc2ccccc2F)n1 | 4.66 kMESF (inactive)
CNc1nc(N)c([N+](=O)[O-])c(Nc2cccc(OC)c2)n1 | 7.13 kMESF (inactive)
CNc1nc(N)c(C(=O)c2ccc(C)c(C)c2)c(Nc2cccc(Cl)c2)n1 | 4.45 kMESF (inactive)
CNc1nc(N)c([N+](=O)[O-])c(Nc2cccc(Br)c2)n1 | 7.2 kMESF (inactive)
CCNc1nc(N)c([N+](=O)[O-])c(Nc2cccc(Cl)c2)n1 | 12 kMESF (inactive)
CNc1nc(N)c([N+](=O)[O-])c(Nc2ccccc2Br)n1 | 4.59 kMESF (inactive)

Same assay, conditions: S. cerevisiae MEP2-GFP strain, flow cytometry fluorescence, 3 h; at 300 µM (top of the series)

Compound | GFP fluorescence (kMESF)
CNc1nc(N)cc(Nc2ccccc2F)n1 | 2.73 kMESF (inactive)
COc1ccccc1-c1cc(Nc2cc(C)[nH]n2)nc(NCc2ccccc2)n1 | 2.59 kMESF (inactive)
COC(=O)c1cccc(-c2cc(Nc3cc(C)[nH]n3)nc(NCc3ccccc3)n2)c1 | 2.46 kMESF (inactive)
O=[N+]([O-])c1c(NC2CCCCC2)nc(NCc2ccccc2)nc1N1CCOCC1 | 2.32 kMESF (inactive)
CNc1nc(N)cc(Oc2cccc(Cl)c2)n1 | 2.25 kMESF (inactive)
Cc1cc(Nc2cc(Nc3ccccc3)nc(NCc3ccccc3)n2)n[nH]1 | 2.46 kMESF (inactive)
COc1cccc(-c2cc(Nc3cc(C)[nH]n3)nc(NCc3ccccc3)n2)c1 | 2.66 kMESF (inactive)
CNc1nc(N)cc(Nc2cccc(Cl)c2)n1 | 2.73 kMESF (inactive)

Test system: S. cerevisiae MEP2-GFP strain, flow cytometry fluorescence, 3 h
Test: as above
Settings: not given

EC50 | Compound
107 µM (inactive) | Cc1cc(Nc2cc(-c3ccccc3)nc(NCc3ccccc3)n2)n[nH]1
189 µM (inactive) | CCNc1nc(NC2CCCCC2)c([N+](=O)[O-])c(N2CCOCC2)n1
81.8 µM (inactive) | CCOC(=O)c1c(N)nc(NC)nc1Nc1cccc(F)c1
34.2 µM (inactive) | CNc1nc(N)c([N+](=O)[O-])c(Nc2cccc(Oc3ccccc3)c2)n1
